These are literature values, as cited in US20130172260A1, “PREVENTION OF INDWELLING DEVICE RELATED INFECTION: COMPOSITION AND METHODS” (priority 2003, published 2013).

The test system of this data set is Staphylococcus epidermidis. The following applies: 5 milli Molar in a medium.

Turning to `O=C(O)c1ccccc1O` [salicylic acid], the “inhibited both growth and Biofilm production” value is reported as “up to 55%”.
